Reference: US7928106B2, “Aza-pyridopyrimidinone derivatives” (Hoffmann-La Roche Inc., priority 2007, dated 2011)

Target: T1, HM74A receptor (Homo sapiens, UniProt Q8TDS4)
T1 construct: expressed in transfected cells; host or cells: HEK-293 cells (stably transfected), membrane preparation
Test: Primary radiolabelled ligand competition binding assay ([3H]-nicotinic acid)
Conditions: inhibition of [3H]-nicotinic acid binding, membranes of HEK-293 cells stably transfected with the HM74A receptor
Experimental: Primary Radiolabelled Ligand Competition Binding Assay
Nicotinic acid binding assays were performed with membrane preparations. A cell pellet containing 1×10^8 HEK-293 cells, stably transfected with the HM74A receptor, was resuspended in 3 ml of ice cold Dounce Buffer (10 mM Tris-Cl pH 7.6, 0.5 mM MgCl2) supplemented with Roche protease inhibitor cocktail and homogenized at high speed on a Polytron homogenizer two times for 20 sec on ice. Nuclei and unbroken cells were removed by centrifugation for 5 min at 1,000×g after the addition of 1 ml of tonicity restoration buffer (10 mM Tris pH 7.6, 0.5 mM MgCl2, 600 mM NaCl). The homogenate was centrifuged at 60,000×g for 30 min and pellets were resuspended in Tris buffer (50 mM Tris pH 7.4, containing protease inhibitors). Binding reactions contained 20 µg membranes as determined by BCA protein assay (Pierce), 50 nM [^3H]-nicotinic acid (Amersham) with or without compound addition in 250 μl of binding buffer (50 mM Tris pH 7.4, 2 mM MgCl2, 0.02% CHAPS). […] Bound [^3H]-nicotinic acid was determined by scintillation counting using Top Count NXT (PerkinElmer). […] The effects of compounds were expressed as % inhibition of [^3H]-nicotinic acid binding. Sigmoidal curves were fitted using the XLfit3 program (ID Business Solutions Ltd. UK) and IC50 values determined.

T1 sequence (Q8TDS4 whole entry): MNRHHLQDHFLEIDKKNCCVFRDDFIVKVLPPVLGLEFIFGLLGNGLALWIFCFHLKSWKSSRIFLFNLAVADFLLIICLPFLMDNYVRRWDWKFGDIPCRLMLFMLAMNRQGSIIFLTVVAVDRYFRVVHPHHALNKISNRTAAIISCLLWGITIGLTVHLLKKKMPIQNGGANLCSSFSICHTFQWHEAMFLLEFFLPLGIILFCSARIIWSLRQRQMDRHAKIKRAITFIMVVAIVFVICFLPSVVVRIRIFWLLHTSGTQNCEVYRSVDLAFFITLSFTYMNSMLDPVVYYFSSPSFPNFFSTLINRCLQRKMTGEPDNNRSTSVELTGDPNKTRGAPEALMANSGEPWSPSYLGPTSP

IC50	SMILES
2390 nM	O=c1[nH]c(COCCc2cc(F)ccc2F)nc2nccnc12 [Example 2, 2-[2-(2,5-Difluoro-phenyl)-ethoxymethyl]-3H-pteridin-4-one]
668 nM	O=c1[nH]c(COCCc2cccc(Cl)c2)nc2nnccc12 [Example 7, 7-[2-(3-Chloro-phenyl)-ethoxymethyl]-6H-pyrimido[4,5-c]pyridazin-5-one]
